Earlier results, collected in patent publication US20250339399A1, “SUPRAMOLECULAR SELF-ASSEMBLY SYSTEM” (Beijing Creatron Institute of Pharmaceutical Research Co., …, priority 2022, published 2025).

details: Cannabidiol derivatives, Table 30 (chemical structures); cited from earlier work

| Compound | Log P |
| --- | --- |
| C=C(C)[C@@H]1CCC(CO)=C[C@H]1c1c(O)cc(CCCCC)cc1O [compound 11, ((1′R,2′R)-5′-(hydroxymethyl)-4-pentyl-2′-(prop-1-en-2-yl)-1′,2′,3′,4′-tetrahydro-[1,1′-biphenyl]-2,6-diol)] | Log P = 5.04 H-D:3,H-R = 3 |
| C=C(C)[C@@H]1CCC(C)=C[C@H]1c1c(O)cc(CCC)c(C(=O)O)c1O [compound 6, ((1′R,2′R)-2,6-dihydroxy-5′-methyl-2′-(prop-1-en-2-yl)-4-propyl-1′,2′,3′,4′-tetrahydro-[1,1′-biphenyl]-3-carboxylic acid)] | 5.74 |
| C=C(C)[C@@H]1CCC(C)=C[C@H]1c1c(O)cc(CCCCC)cc1OCC(=O)O [compound 50] | Log P = 5.95 H-D:2,H-R = 4 |
| C=C(C)[C@H]1CC[C@H](C)C[C@@H]1c1c(O)cc(-c2cc3ccccc3o2)cc1O [compound 16] | Log P = 6.17 H-D:2,H-R = 2 |
| C=C(C)[C@@H]1CC(OC(C)=O)C(C)=C[C@H]1c1c(OC(C)=O)cc(CCCCC)cc1OC(C)=O (stereo partly drawn) [compound 57, (3-(acetyloxy)-2-[(1R,6R)-4-(acetyloxy)-3-methyl-6-(prop-1-en-2-yl)cyclohex-2-en-1-yl]-5-pentylphenyl acetate)] | Log P = 5.36 H-D:0,H-R = 3 |
| C=C(C)[C@@H]1CCC(C)=C[C@H]1c1c(O)cc(CCC)cc1O [compound 3, ((1′R,2′R)-5′-methyl-2′-(prop-1-en-2-yl)-4-propyl-1′,2′,3′,4′-tetrahydro-[1,1′-biphenyl]-2,6-diol)] | Log P = 5.44 H-D:2,H-R = 2 |
| C=C(C)[C@@H]1CCC(C)=C[C@H]1c1ccc(CCCCC)cc1O [compound 48, ((1′R,2′R)-5′-methyl-4-pentyl-2′-(prop-1-en-2-yl)-1′,2′,3′,4′-tetrahydro-[1,1′-biphenyl]-2-ol)] | Log P = 6.63 H-D:1, H-R = 1 |
| CCCCCCC(C)(C)c1cc(OC)c(C2C=C(CO)[C@@H]3C[C@H]2C3(C)C)c(OC)c1 (some centres unmarked) [compound 31] | Log P = 6.39 H-D:1,H-R = 3 |
| C=C(C)[C@@H]1CCC(C)=C[C@H]1c1c(C)cc(O)cc1O [compound 62, (5-methyl-4-[(1R,6R)-3-methyl-6-prop-1-en-2-ylcyclohex-2-en-1-yl]benzene-1,3-diol)] | Log P = 4.55 H-D:2,H-R = 2 |
| CCCCCc1cc(O)c([C@@H]2C=C(CO)CC[C@H]2C(C)C)c(O)c1 [compound 22, ((1′S,2′S)-5′-(hydroxymethyl)-2′-isopropyl-4-pentyl-1′,2′,3′,4′-tetrahydro-[1,1′-biphenyl]-2,6-diol)] | Log P = 5.39 H-D:3,H-R = 3 |
| CCCCCc1cc(O)c([C@H]2C=C(CO)CC[C@H]2C(C)C)c(O)c1 [compound 23, ((1′R,2′S)-5′-(hydroxymethyl)-2′-isopropyl-4-pentyl-1′,2′,3′,4′-tetrahydro-[1,1′-biphenyl]-2,6-diol)] | Log P = 5.39 H-D:3,H-R = 3 |
| C=C(C)[C@@H]1CCC(CO)=C[C@H]1c1c(O)cc(C(C)(C)CCCCCC)cc1O [compound 26, ((1′R,2′R)-5′-(hydroxymethyl)-4-(2-methyloctan-2-yl)-2′-(prop-1-en-2-yl)-1′,2′,3′,4′-tetrahydro-[1,1′-biphenyl]-2,6-diol)] | Log P = 6.52 H-D:3,H-R = 3 |
| C=C(C)[C@@H]1CCC(C)=C[C@H]1c1c(O)cc(O)cc1CCCCC [compound 63, (4-[(1R,6R)-3-methyl-6-prop-1-en-2-ylcyclohex-2-en-1-yl]-5-pentylbenzene-1,3-diol)] | Log P = 6.33 H-D:2,H-R = 2 |
| CCCCCc1cc(O)c([C@@H]2CC(C)CC[C@H]2C(C)C)c(O)c1 (stereo partly drawn) [compound 21, (2-((1R,2S)-2-isopropyl-5-methylcyclohexyl)-5-pentylbenzene-1,3-diol)] | Log P = 7.08 H-D:2,H-R = 2 |
| C=C(C)[C@@H]1CCC(C(=O)O)=C[C@H]1c1c(O)cc(C(C)(C)CCCCCC)cc1O [compound 25, ((1R,6R)-2′,6′-dihydroxy-4′-(2-methyloctan-2-yl)-6-(prop-1-en-2-yl)-1,4,5,6-tetrahydro-[1,1′-biphenyl]-3-carboxylic acid)] | Log P = 6.99 H-D:3,H-R = 4 |
| C=C(C)[C@@H]1CCC(C)=C[C@H]1C1=C(O)C(=O)C(CCCCC)=C(NCc2ccccc2)C1=O [compound 61, (2,5-cyclohexadiene-1,4-dione, 2-hydroxy-3-((1R,6R)-3-methyl-6-(1-methylvinyl)-2-cyclohexen-1-yl)-6-pentyl-5-((benzyl)amino))] | Log P = 6.23 H-D:2,H-R = 4 |

same assay, conditions: Cannabidiol derivatives; pH 7.4; cited from earlier work

| Compound | Log D7.4 |
| --- | --- |
| C=C(C)[C@@H]1CCC(C)=C[C@H]1c1c(O)cc(CCC)c(C(=O)O)c1O [compound 6, ((1′R,2′R)-2,6-dihydroxy-5′-methyl-2′-(prop-1-en-2-yl)-4-propyl-1′,2′,3′,4′-tetrahydro-[1,1′-biphenyl]-3-carboxylic acid)] | 2.26 |

same assay, conditions: cited from earlier work

| Compound | Log P |
| --- | --- |
| CCCCCc1cc(O)c(C/C=C(\C)CCC=C(C)C)c(O)c1 [compound 64, (2-[(2E)-3,7-dimethylocta-2,6-dienyl]-5-pentylbenzene-1,3-diol)] | Log P = 7.05 H-D:2,H-R = 2 |

same assay, conditions: prost derivatives, Table 31 (relevant information); cited from earlier work

| Compound | Log P |
| --- | --- |
| CCCCC(C)(O)C/C=C/[C@H]1[C@H](O)CC(=O)[C@@H]1CCCCCCC(=O)OC (mixture of isomers) [Misoprostol, misoprostol] | Log P:3.86 D-H: 2 R-H:4 |
| O=C(O)CCC/C=C\C[C@@H]1[C@@H](/C=C/[C@@H](O)COc2cccc(C(F)(F)F)c2)[C@H](O)C[C@@H]1O [Travoprost acid, travoprost acid] | Log P:2.92 D-H: 4 R-H: 6 |
| CCCCC[C@](C)(O)/C=C/[C@@H]1[C@@H](C/C=C\CCCC(=O)O)[C@@H](O)C[C@H]1O [Carboprost, carboprost] | Log P:2.89 D-H: 4 R-H: 5 |
| CC(C)OC(=O)CCC/C=C\C[C@@H]1[C@@H](/C=C/[C@@H](O)COc2cccc(C(F)(F)F)c2)[C@H](O)C[C@@H]1O [Travoprost, travoprost] | Log P:3.84 D-H: 3 R-H: 5 |
| O=C1C[C@@H]2[C@@H](CC[C@@H](O)CCc3ccccc3)[C@H](O)C[C@@H]2O1 [Latanoprost lactone diol, latanoprost lactone diol] | Log P: 1.87 D-H: 2 R-H: 3 |
